Reference: PMC5479350 (Journal of virological methods, 2017)
Several values for one entry are separate records, joined by “and”; a condition that tells them apart may be missing. Identical values can stand only once. Like-named read-outs stand apart in the source and are kept apart here.

Tests used:
[1] = test system: Chikungunya virus (S27 strain); experiment: microbe, parasite or virus in culture; assay type: cell-based; details: for EC50: Chikungunya virus, Vero 76, read-out: EC50 (mean 50% effective, virus-inhibitory concentration ± SD)
[2] = test system: Dengue virus Type 2 (New Guinea C strain); experiment: microbe, parasite or virus in culture; assay type: cell-based; details: for EC50: Dengue virus, Vero 76, read-out: EC50 (mean 50% effective, virus-inhibitory concentration ± SD)
[3] = test system: Junin virus (Candid #1 strain); assay type: cell-based
[4] = test system: proliferating, uninfected Vero 76 cells
[5] = in vitro; details: African green monkey

Row | Compound | Inhibition of chikungunya virus (in words) [1] | SI (Selectivity Index, CC50/EC50) [1] | EC50 [1] [µM] | SI (Selectivity Index, CC50/EC50) [2] | EC50 [2] [µM] | Inhibition of Junin virus (in words) [3] | SI (Selectivity Index, CC50/EC50) [3] | Mean 50% cytotoxic concentration ± SD, ALB-Abs ([4]; 4 days, N=3) | Mean 50% cytotoxic concentration ± SD, ALB-Fluor ([4]; 4 days, N=3) | Mean 50% cytotoxic concentration ± SD, Neutral Red ([4]; 4 days, N=3) [µM] | Mean 50% cytotoxic concentration ± SD, Viral ToxGlo ([4]; 4 days, N=3) [µM] | Mean 50% cytotoxic concentration ± SD, WST-1 ([4]; 4 days, N=3) | CC50 ([5]; CC50, range over the dyes) [µM] | Inhibition of dengue virus (in words) [2] | Mean 50% cytotoxic concentration ± SD, Neutral Red ([4]; African green monkey) [µM] | Mean 50% cytotoxic concentration ± SD, Viral ToxGlo ([4]; African green monkey) [µM] | CC50 ([5]; CC50 with ALB-F) [µM] | CC50 ([5]; CC50 with all other dyes including ALB-A) [µM] | CC50 ([5]; CC50 (toxicity) with ALB-A and ALB-F) [µM] | CC50 ([5]; CC50 (toxicity) with NR, VTG, and WST-1) [µM]
1 | C#Cc1c(C(N)=O)ncn1[C@@H]1O[C@H](CO)[C@@H](O)[C@H]1O [EICAR, 5-ethynyl-1-beta-D-ribofuranosylimidazole-4-carboxamide] | inhibited | >10 | 10.3 ± 13 | >8 | 13.3 ± 22.1 | inhibited | >52 | 4.9 ± 1.4 µM and 3.9 ± 1.3 µM | 9.5 ± 4.2 µM and 8.2 ± 2.2 µM | 2.9 ± 1.0 | 2.7 ± 1.4 | 2.8 ± 1.1 µM and 3.9 ± 1.3 µM | 1.5 to 8.9 |  |  |  |  |  |  | 
2 | Nc1ncnc2c([C@@H]3N[C@H](CO)[C@@H](O)[C@H]3O)c[nH]c12 [BCX4430] |  |  | > 100 | >3 | 37 ± 22 |  |  |  |  |  |  |  |  | weak dengue-inhibitory activity |  |  |  |  |  | 
3 | NC(=O)c1csc([C@@H]2O[C@H](CO)[C@@H](O)[C@H]2O)n1 [Tiazofurin] | ineffective |  | > 100 |  | > 100 | ineffective |  |  |  |  |  |  |  | ineffective |  |  |  |  |  | 
4 | Nc1cc2nc[nH]c2c(=O)[nH]1 [3-Deazaguanine] | inhibited | >8 | 13 ± 8.3 | >22 | 4.6 ± 6.3 | inhibited | >63 |  |  |  |  |  |  |  | 3.0 ± 1.1 | 1.5 ± 0.7 | 83 to 93 | 2.4 to 7 |  | 
5 | NC(=O)c1ncn([C@@H]2O[C@H](CO)[C@@H](O)[C@H]2O)n1 [Ribavirin, 1-beta-D-ribofuranosyl-1,2,4-triazole-3-carboxamide] |  |  | > 100 |  | > 100 | inhibited | >7 |  |  |  |  |  |  |  |  |  |  |  |  | 
6 | NC(=O)c1nc(F)c[nH]c1=O [Favipiravir] |  |  | > 100 |  | > 100 | inhibited | >23 |  |  |  |  |  |  |  |  |  |  |  |  | 
7 | O=c1cnn([C@@H]2O[C@H](CO)[C@@H](O)[C@H]2O)c(=O)[nH]1 [6-Azauridine] | inhibited | >13 | 8 ± 10.4 | >12 | 8.4 ± 10.8 | inhibited | >151 | 48.0 ± 11.5 µM and 48.0 ± 19.9 µM | 69.0 ± 10.5 μM and 94.0 ± 10.4 ^*^, ^φ μM | 6.2 ± 0.9 | 17.0 ± 5.3 | 6.2 ± 1.0 μM and 7.1 ± 1.8 ^b μM |  |  |  |  |  |  | 48 to 92 | 6.1 to 17.5
8 | COc1c(C)c2c(c(O)c1C/C=C(\C)CCC(=O)O)C(=O)OC2 [Mycophenolic acid, mycophenolic acid] | inhibited | >61 | 1.6 ± 1.7 | >22 | 4.5 ± 6.6 | inhibited | >100 | 1.4 ± 0.3 µM and 1.2 ± 0.2 µM | 1.9 ± 0.1 µM and 2.5 ± 0.5 µM | 0.8 ± 0.6 | 0.7 ± 0.2 | 0.5 ± 0.1 µM | 0.8 to 2.5 |  |  |  |  |  |  | 
